In ChEMBL document CHEMBL1151883, “Design and synthesis of bisenediyne bissulfones and their reactivity under basic condition” (Bioorg Med Chem Lett, 2009):
The source made the active and inactive calls. The calls are words filed in the database; no cut-off is given here.

What was measured:
Format in all cases: nucleic-acid assay
Conditions in all cases: Escherichia coli
Nucleic Acid [1] = assay: Induction of supercoiled pBR322 DNA cleavage at PH 7.2 after 16 hrs at 37 degC in presence of triethylamine
Nucleic Acid [2] = assay: Induction of supercoiled pBR322 DNA cleavage at PH 7.2 after 8 hrs at 37 degC in presence of triethylamine
Nucleic Acid [3] = assay: Induction of supercoiled pBR322 DNA cleavage at PH 7.2 after 8 hrs at 37 degC in absence of triethylamine
Nucleic Acid [4] = assay: Induction of supercoiled pBR322 DNA cleavage at PH 7.2 after 16 hrs at 37 degC in absence of triethylamine

Activity (Nucleic Acid [1]) | Activity (Nucleic Acid [2]) | Activity (Nucleic Acid [3]) | Activity (Nucleic Acid [4]) | Structure (SMILES)
62% | 47% | – | – | O=S(=O)(CC#Cc1ccccc1C#CC#Cc1ccccc1C#CCS(=O)(=O)c1ccccc1)c1ccccc1
– | – | Active | Active | O=S(=O)(C=C=Cc1ccccc1C#Cc1ccccc1C#CCS(=O)(=O)c1ccccc1)c1ccccc1
45% | 45% | – | – | O=S(=O)(CC#Cc1ccccc1C#Cc1ccccc1C#CCS(=O)(=O)c1ccccc1)c1ccccc1
– | – | Active | Active | O=S(=O)(C=C=Cc1ccccc1C#CC#Cc1ccccc1C#CCS(=O)(=O)c1ccccc1)c1ccccc1
